Assay results reported in patent publication US8541460B2, “PDK-1/Akt signaling inhibitors” (The Ohio State University, priority 2003, dated 2013).

Legend:
[1] = system: PC-3 cells; assay: Apoptosis analysis (DNA fragmentation ELISA, PARP cleavage); format: cell-based, human; settings: 1% FBS-containing medium
Method: Apoptosis analysis Two methods were used to assess drug-induced apoptotic cell death: detection of DNA fragmentation by the Cell Death Detection ELISA kit (Roche Diagnostics. Mannheim, Germany) and Western blot analysis of poly-(ADP-ribose)polymerase (PARP) cleavage. […] In brief, 4×10^5 PC-3 cells were cultured in a T-25 flask for 24 h before treatment. Cells were treated with the DMSO vehicle or the test agent at the indicated concentrations for 6-24 h, collected, and cell lysates equivalent to 2×10^3 PC-3 cells were used in the ELISA. For the PARP cleavage assay, drug-treated cells were collected 4-8 h post-treatment, washed with ice-cold PBS, and resuspended in lysis buffer containing 20 mM Tris-HCl, pH 8, 137 mM NaCl, 1 mM CaCl2, 10% glycerol, 1% Nonidet P-40, 0.5% deoxycholate, 0.1% SDS, 100 μM 4-(2-aminoethyl)benzenesulfonyl fluoride, leupeptin at 10 μg/mL, and aprotinin at 10 μg/mL. Soluble cell lysates were collected after centrifugation at 10,000 g for 5 min. Equivalent amounts of proteins (60-100 μg) from each lysate were resolved in 8% SDS-polyacrylamide gels. Bands were transferred to nitrocellulose membranes, and analyzed by immunoblotting with anti-PARP antibody.

[2] = system: MDA-MB-435; assay: NCI DTP cell line screen (SRB), Breast Cancer; format: cell-based, human; settings: for TGI: in M (unit assumed)
Method: (§1) Screening of compounds 70 and 71 against several cancer cell lines The human tumor cell lines of the cancer screening panel are grown in RPMI 1640 medium containing 5% fetal bovine serum and 2 mM L-glutamine. For a typical screening experiment, cells are inoculated into 96 well microtiter plates in 100 μL at plating densities ranging from 5,000 to 40,000 cells/well depending on the doubling time of individual cell lines. After cell inoculation, the microtiter plates are incubated at 37° C., 5% CO2, 95% air and 100% relative humidity for 24 h prior to addition of experimental drugs.
(§2) After 24 h, two plates of each cell line are fixed in situ with TCA, to represent a measurement of the cell population for each cell line at the time of drug addition (Tz). Experimental drugs are solubilized in dimethyl sulfoxide at 400-fold the desired final maximum test concentration and stored frozen prior to use. At the time of drug addition, an aliquot of frozen concentrate is thawed and diluted to twice the desired final maximum test concentration with complete medium containing 50 μg/ml gentamicin. Additional four, 10-fold or ½ log serial dilutions are made to provide a total of five drug concentrations plus control. Aliquots of 100 μl of these different drug dilutions are added to the appropriate microtiter wells already containing 100 μl of medium, resulting in the required final drug concentrations.
(§3) Following drug addition, the plates are incubated for an additional 48 h at 37° C., 5% CO2, 95% air, and 100% relative humidity. For adherent cells, the assay is terminated by the addition of cold TCA. Cells are fixed in situ by the gentle addition of 50 μl of cold 50% (w/v) TCA (final concentration, 10% TCA) and incubated for 60 minutes at 4° C. The supernatant is discarded, and the plates are washed five times with tap water and air dried. Sulforhodamine B (SRB) solution (100 μl) at 0.4% (w/v) in 1% acetic acid is added to each well, and plates are incubated for 10 minutes at room temperature. After staining, unbound dye is removed by washing five times with 1% acetic acid and the plates are air dried. Bound stain is subsequently solubilized with 10 mM trizma base, and the absorbance is read on an automated plate reader at a wavelength of 515 nm. For suspension cells, the methodology is the same except that the assay is terminated by fixing settled cells at the bottom of the wells by gently adding 50 μl of 80% TCA (final concentration, 16% TCA). Using the seven absorbance measurements [time zero, (Tz), control growth, (C), and test growth in the presence of drug at the five concentration levels (Ti)], the percentage growth is calculated at each of the drug concentrations levels. Percentage growth inhibition is calculated as: [(Ti−Tz)/(C−Tz)]×100 for concentrations for which Ti>/=Tz [(Ti−Tz)/Tz]×100 for concentrations for which Ti<Tz
(§4) Three dose response parameters are calculated for each experimental agent. […] The drug concentration resulting in total growth inhibition (TGI) is calculated from Ti=Tz. […] Values are calculated for each of these three parameters if the level of activity is reached; however, if the effect is not reached or is exceeded, the value for that parameter is expressed as greater or less than the maximum or minimum concentration tested.
(§5) The methods described were used to test compounds 70 and 71 on a panel of sixty cell lines under a screening service provided by the Developmental Therapeutics Program at the National Institutes of Health. Shown in FIG. 1C are 1, RPMI-8226 leukemia cells; 2; NCI-H322M non-small cell lung cancer cells; 3, HT29 colon cancer cells; 4, U251 CNS cancer cells; 5, SK-MEL-28 melanoma cancer cells; 6, SK-OV-3 ovarian cancer cells; 7, RXF 393 renal cancer cells; 8, PC-3 prostate cancer cells; 9, MDA-MB-231 breast cancer cells.

[3] = system: MCF7; assay: NCI DTP cell line screen (SRB), Breast Cancer; format: cell-based, human; settings: for TGI: in M (unit assumed)
Method: as §1, §2, §3, §4, §5

[4] = system: CCRF-CEM; assay: NCI DTP cell line screen (SRB), Leukemia; format: cell-based
[5] = system: BT-549; assay: NCI DTP cell line screen (SRB), Breast Cancer; format: cell-based
[6] = system: NCI-H226; assay: NCI DTP cell line screen (SRB), Non-Small Cell Lung Cancer; format: cell-based, human
Method: as §1, §2, §3, §4, §5

N=C(N)Nc1ccc(-n2nc(C(F)(F)F)cc2-c2ccc3c(ccc4ccccc43)c2)cc1 [Compound 71, 4-[5-(2-Phenanthrenyl)-3-(trifluoromethyl)-1H-pyrazol-1-yl]-phenyl-guanidine]
apoptotic death in PC-3 cells (DNA fragmentation and PARP cleavage) [1]: induced apoptotic death in PC-3 cells in 1% FBS-containing medium in a dose-dependent manner
GI50 [2]: 1700 nM
Mean Optical Densities ([2]; Log10 Concentration −4.0): 0.295
Percent Growth ([2]; Log10 Concentration −4.0): −27%
Mean Optical Densities ([2]; Log10 Concentration −5.0): −0.073
Percent Growth ([2]; Log10 Concentration −5.0): −100%
Mean Optical Densities ([2]; Log10 Concentration −6.0): 1.444
Percent Growth ([2]; Log10 Concentration −6.0): 95%
Mean Optical Densities ([2]; Log10 Concentration −7.0): 1.382
Percent Growth ([2]; Log10 Concentration −7.0): 89%
Mean Optical Densities ([2]; Log10 Concentration −8.0): 1.376
Percent Growth ([2]; Log10 Concentration −8.0): 89%
TGI [2]: 3.07E−06
GI50 [3]: 1820 nM
Mean Optical Densities ([3]; Log10 Concentration −4.0): 0.229
Percent Growth ([3]; Log10 Concentration −4.0): −49%
Mean Optical Densities ([3]; Log10 Concentration −5.0): 0.073
Percent Growth ([3]; Log10 Concentration −5.0): −84%
Mean Optical Densities ([3]; Log10 Concentration −6.0): 1.507
Percent Growth ([3]; Log10 Concentration −6.0): 97%
Mean Optical Densities ([3]; Log10 Concentration −7.0): 1.340
Percent Growth ([3]; Log10 Concentration −7.0): 82%
Mean Optical Densities ([3]; Log10 Concentration −8.0): 1.467
Percent Growth ([3]; Log10 Concentration −8.0): 93%
TGI ([3]; MCP7): 3.44E−06
GI50 [4]: 1230 nM
TGI [4]: 2.48E−06
Mean Optical Densities ([4]; Log10 Concentration −4.0): 0.140
Percent Growth ([4]; Log10 Concentration −4.0): −53%
Mean Optical Densities ([4]; Log10 Concentration −5.0): 0.002
Percent Growth ([4]; Log10 Concentration −5.0): −99%
Mean Optical Densities ([4]; Log10 Concentration −6.0): 0.718
Percent Growth ([4]; Log10 Concentration −6.0): 65%
Mean Optical Densities ([4]; Log10 Concentration −7.0): 0.811
Percent Growth ([4]; Log10 Concentration −7.0): 79%
Mean Optical Densities ([4]; Log10 Concentration −8.0): 0.808
Percent Growth ([4]; Log10 Concentration −8.0): 78%
CC50 ([4]; read-out: LC50 (the source's name)): 5000 nM

NCC(=O)Nc1ccc(-n2nc(C(F)(F)F)cc2-c2ccc3c(ccc4ccccc43)c2)cc1 [Compound 70, 2-Amino-N-{4-[5-(2-phenanthrenyl)-3-(trifluoromethyl)-1H-pyrazol-1-yl]-phenyl}-acetamide]
TGI [5]: 2.95E−06
Percent Growth ([5]; Log10 Concentration −4.0): −60%
Percent Growth ([5]; Log10 Concentration −5.0): −71%
Percent Growth ([5]; Log10 Concentration −6.0): 63%
Percent Growth ([5]; Log10 Concentration −7.0): 86%
Percent Growth ([5]; Log10 Concentration −8.0): 90%
apoptotic death in PC-3 cells (DNA fragmentation and PARP cleavage) [1]: induced apoptotic death in PC-3 cells in 1% FBS-containing medium in a dose-dependent manner
Percent Growth ([6]; Log10 Concentration −4.0): −48%
Percent Growth ([6]; Log10 Concentration −5.0): −58%
Percent Growth ([6]; Log10 Concentration −6.0): 59%
Percent Growth ([6]; Log10 Concentration −7.0): 98%
Percent Growth ([6]; Log10 Concentration −8.0): 100%
TGI ([6]; in M (unit assumed)): 3.21E−06
Percent Growth ([2]; Log10 Concentration −4.0): −14%
Percent Growth ([2]; Log10 Concentration −5.0): −69%
Percent Growth ([2]; Log10 Concentration −6.0): 68%
Percent Growth ([2]; Log10 Concentration −7.0): 98%
Percent Growth ([2]; Log10 Concentration −8.0): 103%
TGI [2]: 3.14E−06
Percent Growth ([3]; MCF7, Log10 Concentration −4.0): −44%
Percent Growth ([3]; MCF7, Log10 Concentration −5.0): −57%
Percent Growth ([3]; MCF7, Log10 Concentration −6.0): 43%
Percent Growth ([3]; MCF7, Log10 Concentration −7.0): 89%
Percent Growth ([3]; MCF7, Log10 Concentration −8.0): 91%
TGI ([3]; MCF7): 2.72E−06
TGI [4]: 2.49E−06
Percent Growth ([4]; Log10 Concentration −4.0): −34%
Percent Growth ([4]; Log10 Concentration −5.0): −43%
Percent Growth ([4]; Log10 Concentration −6.0): 28%
Percent Growth ([4]; Log10 Concentration −7.0): 81%
Percent Growth ([4]; Log10 Concentration −8.0): 74%
